Results published in US11969730B2, “Apparatus for sensor-based examination of biological cells” (FRAUNHOFER-GESELLSCHAFT ZUR FÖRDERUNG DER ANGEWANDTEN …, priority 2017, dated 2024).

Tests used:
HaCaT cells [1] = test: impedimetric readout of adhesion of HaCaT cells to the electrode surface after cryopreservation and thawing; type: cell-based, human; settings: 10% by volume in the freezing medium; cryopreservation over 5 weeks at −80° C.; capacitance at 40 kHz
Method: The cell density on the sensor surface is 450,000 cells/cm^2 (T=37° C.) in both cases. The decrease in the capacitance reflects the increasing electrode coverage.
To check the viability state of the frozen cells and then thawed again, the kinetics of the adhesion of human skin cells (keratinocytes, HaCaT cells) to the electrode surface (of gold) after a cryopreservation of more than five weeks at −80° C. were tracked directly after thawing (revitalization) with time resolution via an impedimetric readout (see FIG. 2A). The time development of the capacitance C of the total system at a measurement frequency of 40 kHz is in linear dependence on the occupation of the electrode with adherent cells and thus reflects the progressing process of the cell adhesion.
The culture medium is modeled on the freezing medium after revitalizing the cells in the chemical composition. Variable DMSO contents were selected to freeze the cells to be able to directly optimize the freezing medium for the respective cell line.

HaCaT cells [2] = test: impedimetric toxicity study (cytotoxicity assay) with confluent HaCaT cells on electrode array; type: cell-based, human; settings: 32 kHz; increasing concentrations; applied 24 h after thawing or seeding; 37° C.; cryopreserved (7 days, −80° C.) and newly seeded cells
Method: IZI at 32 kHz for confluent HaCaT cells that were incubated (cytotoxicity assay) at the time t=0 h with increasing concentrations of CdCl2.
The cell density was identical in both cases. Increasing concentrations of the heavy metal salt CdCl2 served as the chemical model toxin. The assay was carried out 24 h after thawing, respectively seeding.
The cell response to the addition of CdCl2 is documented with reference to the time profile of the normed impedance at a measurement frequency of 32 kHz. […] The time developments, also highly characteristic of the impedance after the addition of CdCl2 to the confluent cell layers for every concentration of CdCl2 for the cryopreserved cells are indistinguishably similar to those of the newly seeded cells.

SMILES	effect on the cell viability after thawing (HaCaT cells [1])	time profile of the normed impedance after addition of CdCl2 (HaCaT cells [2])
C[S+](C)[O-] [DMSO]	no negative effect	
[Cl][Cd][Cl] [CdCl2]		decreases in dependence on the dosage
